{
  "source": "paper PMC6100415",
  "about": "“Hepatic Metabolism of Sakuranetin and Its Modulating Effects on Cytochrome P450s and UDP-Glucuronosyltransferases” (Molecules : A Journal of Synthetic Chemistry and Natural …, 2018)",
  "key": {"[1]": {"test": "NADPH-dependent phase I metabolic stability in rat liver microsomes", "assay_type": "in vitro ADME", "protocol": "(§1) Metabolic stability was measured by monitoring the amount of parent compound that remained in an incubation mixture at designated incubation time points. For the phase I metabolism study, SKN (100 μM) was incubated with liver microsomes (1 mg/mL, rat, mouse, and dog; and 0.5 mg/mL, human), and an NADPH-generation cocktail consisting of nicotinamide adenine dinucleotide phosphate (NADP^+, 1 mM), glucose-6-phosphate (5 mM), glucose-6-phosphate dehydrogenase (1 unit/mL), and MgCl2 (10 mM) in potassium phosphate buffer (0.1 M, pH 7.4) in a total volume of 1 mL. To study phase II glucuronide conjugative metabolism, uridine 5′-diphosphoglucuronic acid (UDPGA) (2 mM) was added as a cofactor. The mixture was incubated in a shaking water bath, and the enzyme reaction was initiated by the addition of NADP^+, UDPGA, or both. Aliquots (100 μL) were removed at 0, 5, 15, 30, 45, and 60 min, and the reaction was terminated by adding two volumes of ice-cold methanol. […] The half-life of SKN was obtained by plotting the remaining amount of SKN against time using Prism 3.0 software (GraphPad, La Jolla, CA, USA). Hepatic intrinsic clearance (CLint, hepatic) was calculated using the following formula [20]:CLint, hepatic = (0.693/t1/2) × (g liver weight/kg body weight) × (mL incubation/mg of microsomal protein) × (mg microsomal protein concentration/g of liver)\n(§2) The DAD was set at 280 nm."}, "[2]": {"test": "UDPGA-dependent metabolic stability in human liver microsomes", "assay_type": "in vitro ADME", "conditions": "for half-life at 100 µM / CLint scaled at 100 µM: human, pH 7.4, human liver microsomes; for CLint scaled at 100 µM: read-out: CLint, hepatic", "protocol": "as §1, §2"}, "[3]": {"test": "UDPGA-dependent metabolic stability in dog liver microsomes", "assay_type": "in vitro ADME", "conditions": "for Amount Remaining at 30 min (%): dog liver microsomes; for half-life at 100 µM / CLint scaled at 100 µM: dog, liver microsomes, pH 7.4, dog liver microsomes; for CLint scaled at 100 µM: read-out: CLint, hepatic", "protocol": "as §1, §2"}, "[4]": {"biological_target": "CYP2C9 (Homo sapiens, UniProt P11712)", "sequence (P11712 whole entry)": "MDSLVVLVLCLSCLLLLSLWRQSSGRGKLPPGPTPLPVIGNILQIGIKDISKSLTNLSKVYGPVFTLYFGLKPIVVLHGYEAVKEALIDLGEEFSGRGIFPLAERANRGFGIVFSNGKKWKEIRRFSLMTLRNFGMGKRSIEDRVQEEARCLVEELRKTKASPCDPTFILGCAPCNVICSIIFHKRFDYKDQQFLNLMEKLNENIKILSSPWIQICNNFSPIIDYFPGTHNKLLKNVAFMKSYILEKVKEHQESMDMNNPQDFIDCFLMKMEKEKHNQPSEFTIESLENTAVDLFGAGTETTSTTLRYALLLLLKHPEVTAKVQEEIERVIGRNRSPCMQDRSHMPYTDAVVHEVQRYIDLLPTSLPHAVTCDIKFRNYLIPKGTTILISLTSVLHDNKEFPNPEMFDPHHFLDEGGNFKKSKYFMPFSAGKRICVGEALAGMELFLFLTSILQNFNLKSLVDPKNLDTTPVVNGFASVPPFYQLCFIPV", "test": "CYP inhibition in human liver microsomes, tolbutamide 6-hydroxylation (TOLHY)", "conditions": "CYP2C9, TOLHY, SKN 10 μM", "description": "The formation of a metabolite from a CYP isozyme-specific phenotyping reaction (Table 4) was monitored. Each substrate (200 μM), along with SKN (10 μM), was incubated with human liver microsomes (0.5 mg/mL) and an NADPH-generating system in 0.1 M potassium phosphate buffer (pH 7.4) at 37 °C for 60 min in a total volume of 200 μL in a shaking water bath. The metabolic reaction was initiated by adding NADP^+ (1 mM) and stopped by adding 10 μL of trichloroacetic acid. In some experiments, the microsomes were pre-incubated with SKN for 15 min prior to the addition of the cofactor, in order to determine the time-dependent inhibitory effect. […] In contrast, co-incubation refers to experiments in which microsomes and cofactors were incubated in the presence of SKN. After centrifugation of incubation samples at 12,000× g for 15 min at 4 °C, the supernatant (20 μL) was injected into an HPLC-DAD system to analyze the metabolites formation (Supplementary Materials).\nThe DAD was set at 248 nm for phenacetin O-deethylation (PCOD), 298 nm for bupropion hydroxylation (BPHY), 276 nm for diclofenac 4′-hydroxylation (DCHY), 230 nm for tolbutamide 6-hydroxylation (TOLHY), 280 nm for dextromethorphan O-demethylation (DEXOD), and 250 nm for testosterone 6β-hydroxylation (TSTHY) and testosterone β-D-glucuronidation (TSTG)."}, "[5]": {"biological_target": "T1, estrogen receptor (ER) (Homo sapiens, UniProt P03372)", "T1 construct": "endogenous in cells", "T1 sequence (P03372 1-595)": "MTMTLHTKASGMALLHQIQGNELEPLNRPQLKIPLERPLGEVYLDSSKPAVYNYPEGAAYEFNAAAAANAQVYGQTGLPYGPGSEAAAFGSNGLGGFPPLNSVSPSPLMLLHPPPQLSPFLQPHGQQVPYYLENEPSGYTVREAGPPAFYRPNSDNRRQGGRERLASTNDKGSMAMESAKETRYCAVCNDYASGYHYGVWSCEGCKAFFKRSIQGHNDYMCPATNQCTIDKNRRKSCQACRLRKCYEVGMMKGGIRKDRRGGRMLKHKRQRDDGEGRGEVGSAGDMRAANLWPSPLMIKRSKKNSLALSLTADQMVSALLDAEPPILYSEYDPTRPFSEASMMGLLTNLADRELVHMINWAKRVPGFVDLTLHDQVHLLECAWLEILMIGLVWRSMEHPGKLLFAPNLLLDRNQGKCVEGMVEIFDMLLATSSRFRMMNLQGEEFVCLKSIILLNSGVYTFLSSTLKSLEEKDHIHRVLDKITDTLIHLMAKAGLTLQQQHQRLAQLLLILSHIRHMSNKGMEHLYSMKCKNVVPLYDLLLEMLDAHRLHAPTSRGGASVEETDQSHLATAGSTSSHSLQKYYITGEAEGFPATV", "test": "Estrogen receptor agonist-like activity in ER-positive human breast cancer cells", "assay_type": "cell-based", "conditions": "preliminary data, not shown"}, "[6]": {"tested_on": "hCAR-mediated CYP2B6 promoter", "test": "CAR-mediated CYP2B6 promoter luciferase assay in HepG2 cells", "assay_type": "cell-based, human", "conditions": "pcDNA3-CAR-transfected HepG2 cells, 24 h; CITCO 500 nM", "protocol": "HepG2 cells (American Tissue Culture Collection, Manassas, VA, USA) were maintained in Dulbecco’s modified Eagle’s essential medium (DMEM), containing 10% fetal bovine serum, 1% nonessential amino acids, 1% GlutaMAX®, and 1% antibiotics/antimycotics at 37 °C in a 5% CO2 atmosphere. The expression plasmid encoding the human constitutive androstane receptor (hCAR; pcDNA3-CAR) and the pGL3-CYP2B6 luciferase construct were kindly provided by Dr. Hongbing Wang (University of Maryland, College Park, MD, USA). The plasmid encoding the human pregnane X receptor (hPXR; pcDNA3-PXR) and the pGL3-CYP3A4 luciferase construct were obtained from Dr. Masahiko Negishi at the National Institutes of Health (Bethesda, MD, USA). Cells were seeded at a density of 1.5 × 10^5 cells/well into a 24-well plate. The next day, the cells were transfected with 0.25 μg of either pcDNA3-CAR or pcDNA3-PXR and 0.25 μg of a promoter luciferase plasmid (either pGL3-CYP2B6 or pGL3-CYP3A4) using Lipofectamine 2000 (Invitrogen, Carlsbad, CA, USA) according to the manufacturer’s instructions. […] The cells were harvested and luciferase activity was measured as described previously."}, "[7]": {"tested_on": "CYP isozymes (all isozyme-specific reactions)", "test": "CYP inhibition in human liver microsomes, all isozyme-specific reactions", "assay_type": "in vitro ADME", "conditions": "pH 7.4, SKN 10 μM, read-out: inhibitory effect on the formation of any CYP isozyme-specific metabolites", "excerpt": "as §2"}},
  "data": [
    {"smiles": "COc1cc(O)c2c(c1)OC(c1ccc(O)cc1)CC2=O", "note": "(racemic) [SKN, (+/−) 7-O-methylnaringenin]", "values": [
      {"measurement": "half-life at 100 µM", "setting": "[1]; pH 7.4, rat liver microsomes", "value": 10.1, "unit": "min"},
      {"measurement": "CLint scaled at 100 µM", "setting": "[1]; pH 7.4, rat liver microsomes, read-out: CLint, hepatic", "value": 124, "unit": "mL/min/kg"},
      {"measurement": "Amount Remaining at 30 min (%)", "setting": "[1]; rat liver microsomes 1 mg/mL, SKN 100 μM", "value": 29.0, "unit": "%"},
      {"measurement": "Amount Remaining at 30 min (%)", "setting": "[2]; NADPH +", "value": 54.9, "unit": "%"},
      {"measurement": "Amount Remaining at 30 min (%)", "setting": "[2]; NADPH −", "value": 71.3, "unit": "%"},
      {"measurement": "half-life at 100 µM", "setting": "[2]; NADPH +", "value": 25, "unit": "min"},
      {"measurement": "CLint scaled at 100 µM", "setting": "[2]; NADPH +", "value": 49.9, "unit": "mL/min/kg"},
      {"measurement": "half-life at 100 µM", "setting": "[2]; NADPH −", "value": "> 30", "unit": "min"},
      {"measurement": "CLint scaled at 100 µM", "setting": "[2]; NADPH −", "value": "< 41.6", "unit": "mL/min/kg"},
      {"measurement": "Amount Remaining at 30 min (%)", "setting": "[3]; NADPH +", "value": 0.0, "unit": "%"},
      {"measurement": "Amount Remaining at 30 min (%)", "setting": "[3]; NADPH −", "value": 42.4, "unit": "%"},
      {"measurement": "half-life at 100 µM", "setting": "[3]; NADPH +", "value": 5.8, "unit": "min"},
      {"measurement": "CLint scaled at 100 µM", "setting": "[3]; NADPH +", "value": 300, "unit": "mL/min/kg"},
      {"measurement": "half-life at 100 µM", "setting": "[3]; NADPH −", "value": 24.2, "unit": "min"},
      {"measurement": "CLint scaled at 100 µM", "setting": "[3]; NADPH −", "value": 71.4, "unit": "mL/min/kg"},
      {"measurement": "% Inhibition in Pre-Incubation", "setting": "[4]; 15 min pre-incubation", "value": "10.1 ± 1.2", "unit": "%"},
      {"measurement": "% Inhibition in Co-Incubation", "setting": "[4]; human liver microsomes", "value": "2.0 ± 0.6", "unit": "%"},
      {"measurement": "estrogen receptor (ER) agonist-like activity", "setting": "[5]", "value": "agonist-like activity"},
      {"measurement": "CYP2B6 luciferase activity increase", "setting": "[6]", "value": "not affected"},
      {"measurement": "inhibition at 60 min, 10 µM", "setting": "[7]", "value": "≤ 20", "unit": "%"}
    ]}
  ]
}
